Patent US20080318993A1 (Endo Pharmaceuticals, Inc., priority 2007, published 2008)
Several values for one entry are separate records, joined by “and”; a condition that tells them apart may be missing. Equal entries are not always repeated. Where two headings read alike, the source gives them in different places.

Legend:
[1] = Example 5: plasma pharmacokinetics of EN3202 20 mg in hepatic impairment vs healthy controls; conditions: for AUC / AUC(0-t) / Cmax / Tmax / half-life: human, plasma, oral, 20 mg; for AUC(0-t): AUCT; for Tmax: median (range); for increase in average AUC relative to controls: arithmetic means; for AUC increase relative to healthy controls / Cmax increase relative to healthy controls: log-transformed comparison
Description: (§1) While in the clinic, the subjects were to refrain from strenuous physical activity.
All study medications were supplied by the sponsor. […] A single 20 mg dose EN3202 was administered following an overnight fast (from approximately 22:00 on the evening prior to dose administration) at approximately 08:00, and participants were not allowed to eat until at least four hours after the dose.
All doses were administered with 240 mL of ambient water. Participants were instructed to drink all of the water.
Pharmacokinetic parameters were calculated using model-independent methods.
All pharmacokinetic results are summarized using appropriate descriptive statistics. […] One-way ANOVA was conducted using the model PKVAR=group, where group was mild hepatic impairment, moderate-severe hepatic impairment, or healthy control. Point estimates of the impaired versus control group differences and the corresponding 90% confidence limits were constructed.

[2] = Example 5: urinary excretion of oxymorphone and metabolites in hepatic impairment vs healthy controls; conditions: for mean amount excreted in the urine: percent of administered dose, through 120 hours
Excerpt: as §1

[3] = 10 mg oral dose, cited from earlier work
[4] = orally administered (oral solution), hydrochloride, cited from earlier work
[5] = Moderate-Severe Impairment, mean (SD)
[6] = Subject 006 (Child-Pugh Class B)
[7] = Subject 007 (Child-Pugh Class A)
[8] = Subject 009 (Child-Pugh Class B)
[9] = Subject 010 (Child-Pugh Class B)
[10] = Subject 011 (Child-Pugh Class C)
[11] = moderate-severe hepatic impairment

Question: Which λz ([1]; Healthy Controls, mean (SD)) does the source give for `CN1CC[C@]23c4c5ccc(O)c4O[C@H]2C(=O)CC[C@@]3(O)[C@H]1C5.Cl` [Oxymorphone, 14-hydroxydihydromorphinone hydrochloride] here?
Answer: 0.0970 (0.0540) hr^−1

Question: And the CL/F ([1]; Healthy Controls, mean (SD), hydrochloride)?
Answer: 21.15 (13.54) L/min

Question: What about the CL/F ([1]; Healthy Controls, mean (SD), listed as oxymorphone, hydrochloride) of the same molecule?
Answer: 21.15 L/min

Question: And the CL/F ([1]; Mild Impairment, mean (SD))?
Answer: 13.30 (5.81) L/min

Question: What about the λz ([1]; Mild Impairment, mean (SD)) of the same molecule?
Answer: 0.0830 (0.0392) hr^−1

Question: What about the CL/F [1, 5] of the same molecule?
Answer: 7.17 (5.08) L/min

Question: What about the λz [1, 5] of the same molecule?
Answer: 0.0970 (0.0365) hr^−1

Question: What about the CL/F [1, 6] of the same molecule?
Answer: 7.34 L/min

Question: And the CL/F [1, 7]?
Answer: 4.45 L/min

Question: And the CL/F [1, 8]?
Answer: 1.38 L/min

Question: What about the CL/F [1, 9] of the same molecule?
Answer: 7.63 L/min

Question: What about the CL/F [1, 10] of the same molecule?
Answer: 1.33 L/min

Question: What about the AUC ([1]; AUC, Healthy Controls, mean (SD), single 20 mg EN3202, fasting) of the same molecule?
Answer: 20.6 ng·h/mL

Question: And the AUC ([1]; AUC, Mild Impairment, mean (SD), single 20 mg EN3202, fasting)?
Answer: 32.1 ng·h/mL

Question: And the AUC ([1]; AUC, Moderate-Severe Impairment, mean (SD), single 20 mg EN3202, fasting)?
Answer: 106 ng·h/mL

Question: And the AUC ([1]; AUC, Subject 006 (Child-Pugh Class B))?
Answer: 45.4 ng·h/mL

Question: And the AUC ([1]; AUC, Subject 007 (Child-Pugh Class A))?
Answer: 74.8 ng·h/mL

Question: What about the AUC ([1]; AUC, Subject 009 (Child-Pugh Class B)) of the same molecule?
Answer: 241 ng·h/mL

Question: And the AUC ([1]; AUC, Subject 010 (Child-Pugh Class B))?
Answer: 43.7 ng·h/mL

Question: And the AUC ([1]; AUC, Subject 011 (Child-Pugh Class C))?
Answer: 250 ng·h/mL

Question: And the AUC(0-t) ([1]; Healthy Controls, mean (SD))?
Answer: 18 ng·h/mL

Question: What about the AUC(0-t) ([1]; Mild Impairment, mean (SD)) of the same molecule?
Answer: 30 ng·h/mL

Question: What about the AUC(0-t) [1, 5] of the same molecule?
Answer: 104 ng·h/mL

Question: What about the Cmax ([1]; Healthy Controls, mean (SD)) of the same molecule?
Answer: 1.73 ng/mL

Question: What about the Cmax ([1]; Mild Impairment, mean (SD)) of the same molecule?
Answer: 3.98 ng/mL

Question: And the Cmax [1, 5]?
Answer: 9.16 ng/mL

Question: And the Cmax [1, 6]?
Answer: 4.31 ng/mL

Question: And the Cmax [1, 7]?
Answer: 11.4 ng/mL

Question: And the Cmax [1, 8]?
Answer: 19.6 ng/mL

Question: And the Cmax [1, 9]?
Answer: 3.72 ng/mL

Question: And the Cmax [1, 10]?
Answer: 23.6 ng/mL

Question: And the Cmax ([1]; range among subjects, control group)?
Answer: 0.64 to 2.83 ng/mL

Question: And the Cmax ([1]; range among subjects, mild impairment)?
Answer: 0.86 to 11.4 ng/mL

Question: And the Cmax ([1]; range among subjects, moderate-severe impairment)?
Answer: 1.66 to 23.6 ng/mL

Question: And the AUC ([1]; Individual AUC results, range, healthy controls)?
Answer: 6.18 to 33.9 ng·h/mL

Question: And the AUC ([1]; Individual AUC results, range, subjects with mild impairment)?
Answer: 15.3 to 74.8 ng·h/mL

Question: What about the AUC ([1]; Individual AUC results, range, subjects with moderate-severe impairment) of the same molecule?
Answer: 24.9 to 250 ng·h/mL

Question: What about the Tmax ([1]; Healthy Controls) of the same molecule?
Answer: 3.5 h

Question: And the Tmax ([1]; Mild Impairment)?
Answer: 1.75 h

Question: And the Tmax ([1]; Moderate-Severe Impairment)?
Answer: 1.5 h

Question: And the half-life ([1]; T½, Healthy Controls, mean (SD))?
Answer: 9.98 h

Question: And the half-life ([1]; T½, Mild Impairment, mean (SD))?
Answer: 11.8 h

Question: What about the half-life ([1]; T½, Moderate-Severe Impairment, mean (SD)) of the same molecule?
Answer: 8.04 h

Question: And the AUC ([1]; mean AUC after excluding Subject 007, mild group)?
Answer: 23.6 ng·h/mL

Question: What about the AUC ([1]; median AUC, control group) of the same molecule?
Answer: 23.8 ng·h/mL

Question: And the AUC ([1]; median AUC, mildly-impaired group)?
Answer: 24.7 ng·h/mL

Question: And the half-life ([1]; plasma elimination half-life, Subject 009)?
Answer: 6.96 h

Question: And the half-life ([1]; plasma elimination half-life, Subject 011)?
Answer: 10.7 h

Question: And the “increase in average AUC relative to controls” value ([1]; mild hepatic impairment)?
Answer: approximately 1.56 fold

Question: What about the “AUC increase relative to healthy controls” value ([1]; mild hepatic impairment) of the same molecule?
Answer: 1.52 fold

Question: And the “elimination rate constant ratio, 90% confidence limits” value ([1]; mild impairment)?
Answer: 0.58-1.31

Question: And the “elimination rate constant, ratio to healthy controls” value ([1]; mild impairment)?
Answer: 0.87

Question: What about the “Cmax increase relative to healthy controls” value ([1]; mild impairment) of the same molecule?
Answer: 1.68 fold

Question: What about the “elimination rate constant ratio, 90% confidence limits” value ([1]; moderate-severe impairment) of the same molecule?
Answer: 0.74-1.66

Question: What about the “elimination rate constant, ratio to healthy controls” value ([1]; moderate-severe impairment) of the same molecule?
Answer: 1.11

Question: What about the “increase in average AUC relative to controls” value ([1]; moderate-severe impairment) of the same molecule?
Answer: 5.13 fold

Question: And the “Cmax increase relative to healthy controls” value ([1]; moderate-severe impairment)?
Answer: 3.41 fold

Question: What about the “AUC increase relative to healthy controls” value ([1]; moderate-to-severe hepatic impairment, hydrochloride) of the same molecule?
Answer: 3.61 fold and 3,6 fold

Question: And the “AUC increase in individual subjects” value ([1]; two of six subjects with moderate or severe liver disease)?
Answer: up to 10 fold

Question: What about the “urinary excretion essentially complete by” value ([2]; after single 20 mg dose) of the same molecule?
Answer: by the end of the 48 to 72 hour collection interval

Question: What about the “mean amount excreted in the urine” value ([2]; control group) of the same molecule?
Answer: 0.5%

Question: And the “administered dose excreted unchanged in the urine” value ([2]; discussion statement)?
Answer: Less than 1%

Question: What about the “mean amount excreted in the urine” value ([2]; mild hepatic impairment) of the same molecule?
Answer: 1.2%

Question: And the “increase in the amount excreted in the urine” value [2, 11]?
Answer: approximately 8 fold

Question: And the “mean amount excreted in the urine” value [2, 11]?
Answer: 4.1%

Question: What about the “recovery in the first 24 hours, of the amount recovered” value [3] of the same molecule?
Answer: 82%

Question: And the “recovery in the first 24 hours, of the dose” value [3]?
Answer: ~42%

Question: What about the “unchanged oxymorphone recovered in the urine” value [3] of the same molecule?
Answer: 1.9%

Question: What about the “administered dose recovered in the urine” value ([3]; 120-hour collection interval, 10 healthy subjects, average) of the same molecule?
Answer: 49%

Question: And the “Conjugated oxymorphone, average of the administered dose” value ([3]; urine)?
Answer: 44.1%

Question: And the “oral / average absolute bioavailability” value [4]?
Answer: about 10%

Question: What about the “oral / average absolute bioavailability” value ([4]; listed as oxymorphone) of the same molecule?
Answer: approximately 10%
